Legend:
SHP mRNA in AML12 cells = experiment: Relative expression of SHP mRNA in AML12 cells, EC50 (Experimental Example 4); format: cell-based; settings: Mus musculus, 24 hrs
Procedure: (§1) compounds of the present invention (for their chemical names and preparation methods, see the preparation example for each compound).
AML12 cells: mouse liver cells.
(§2) Control: compound 1-1B with a structure shown as follows, prepared according to a prior art method (for detailed information, see patent application WO2012087519A1).
(§3) Cells were digested with pancreatin and collected, and the concentration of the cells was determined; according to the counting result, the cells were resuspended to a density of 7.5×10^4 cells/mL; 1 mL of the cell suspension was inoculated in each well of a 12-well cell culture plate; and the culture plate was placed in an incubator and cultured under the conditions of 37° C. and 5% CO2 for 24 hrs.
The compound were diluted to 1000, 200, 8, 1.6, 0.32, 0.128, 0.0256 and 0.00512 μM with DMSO. Compound solutions of different concentrations obtained in the previous step were further diluted by 1000 times with media to obtain working solutions, and a medium containing 0.1% of DMSO was adopted as a control group. The cell culture plate was taken out from the incubator, the medium was removed, and the working solutions and the control medium were added. The culture plate was placed back into the incubator and cultured under the conditions of 37° C. and 5% CO2 for 24 hrs.
after treatment for 24 hrs, the cell culture plate was taken out from the incubator, and the medium was removed from the plate; the cells were rinsed three times with pre-cooled (4° C.) PBS (phosphate buffer solution); and 200 μL of pancreatin (preheated to 37° C.) was added to each well, and the plate was then gently shaken such that the pancreatin could evenly cover the plate bottom. The culture plate was then placed back into the incubator and incubated until the cells were separated from the plate bottom. 1 mL of medium was added to terminate digestion. […]

BSEP mRNA in HepG2 cells [1] = experiment: Relative expression of BSEP mRNA in HepG2 cells, EC50 (Experimental Example 3); format: cell-based; settings: Homo sapiens, 24 hrs
Procedure: as §1
(§4) HepG2 cell: human liver cancer cell;
BSEP: bile salt export pump;
as §2
as §3, with “7.5×10^5” for “7.5×10^4”, “2” for “1”, “6-well” for “12-well”
(§5) The compounds were diluted to 3000, 1000, 200, 8, 1.6, 0.32, 0.0128, 0.00256 and 0.000512 μM with DMSO. Compound solutions of different concentrations obtained in the previous step were further diluted by 1,000 times with media to obtain working solutions, and a medium containing 0.1% of DMSO was adopted as a control group. The cell culture plate was taken out from the incubator, the medium was removed, and the working solutions and the control medium were added. The culture plate was placed back into the incubator and cultured under the conditions of 37° C. and 5% CO2 for 24 hrs. […]

SHP mRNA in HepG2 cells = experiment: Relative expression of SHP mRNA in HepG2 cells, EC50 (Experimental Example 3); format: cell-based; settings: Homo sapiens, 24 hrs
Procedure: as §1, §4
SHP: small heterodimer partner;
as §2
as §3, with “7.5×10^5” for “7.5×10^4”, “2” for “1”, “6-well” for “12-well”
as §5

[2] = system: CYP7A1 mRNA in HepG2 cells; experiment: Relative expression of CYP7A1 mRNA in HepG2 cells, IC50 (Experimental Example 3); format: cell-based; settings: Homo sapiens, 24 hrs
Procedure: as §1, §4
CYP7A1: cholesterol 7-alpha hydroxylase;
as §2
as §3, with “7.5×10^5” for “7.5×10^4”, “2” for “1”, “6-well” for “12-well”
as §5

BSEP mRNA in HepG2 cells [3] = experiment: Relative expression of BSEP mRNA in HepG2 cells (qPCR), Experimental Example 1; format: cell-based, human; settings: 24 hrs, expression under 3 μM of PX-104 as 100%
Procedure: compounds of the present invention (for their chemical names and preparation methods, see the preparation example of each compound); compound PX-104 and compound 30-70 (for their structures, see the background of the invention, and for their preparation methods, see patent applications WO2011020615A1 and WO2012087519A1).
as §3, with “7.5×10^5” for “7.5×10^4”, “2” for “1”, “6-well” for “12-well”
The to-be-tested compounds were diluted to 0.3 mM and 3 mM with DMSO; and 5 μL of each stock solution diluted in the previous step was added to 5 mL of medium individually. The concentrations of the obtained working solutions were 0.3 μM and 3 μM respectively. In the control group, medium was prepared by using equivoluminal DMSO instead of the stock solutions; the cell culture plate was taken out from the incubator; the medium was removed from the cell culture plate, and the working solutions and the control medium were added correspondingly; and the culture plate was then put back into the incubator and cultured under the conditions of 37° C. and 5% CO2 for 24 hrs.
after treatment for 24 hrs, the cell culture plate was taken out, and the medium was removed from the plate; the cells were rinsed three times with pre-cooled (4° C.) PBS; and 200 μL of pancreatin (preheated to 37° C.) was added to each well, and the plate was then gently shaken such that the pancreatin could evenly cover the plate bottom. The culture plate was then placed back into the incubator and incubated until the cells were separated from the plate bottom. 1 mL of medium was added to terminate digestion. The solution was gently pipetted and blown for several times with a pipettor, all the substances in each well were pipetted into a 1.5 mL Rnase-free centrifuge tube and centrifuged at 200×g for 5 mins; supernatants were removed to collect cell samples.
Cell lysis: Fresh RNA lysis buffer was prepared (wherein 10 μL of 2-mercaptoethanol was added to 1 mL of lysis buffer); 600 μL of lysis buffer was added to each cell sample; the cells were lysed completely by 1 to 2 mins of vigorous vortexing; the cell lysates were centrifuged at 12,000×g for 5 mins; and the supernatants were transferred to 1.5 mL Rnase-free centrifuge tubes.
Extraction and purification of RNA: An equal amount of 70% ethanol was added to each cell lysate; the centrifuge tubes were then shaken vigorously, and the buffer was mixed sufficiently, so that the particulate precipitates that might be formed after the addition of ethanol were dispersed as even as possible; and adsorption columns were put into collecting tubes, and the mixtures were transferred to the adsorption columns. 700 μL was transferred at most each time; and the solutions were centrifuged at 12,000×g under room temperature for 15 secs. The solutions in the collecting tubes were discarded, and the adsorption columns were put into the collecting tubes once again; and all the remaining mixtures were then transferred into the adsorption columns. 700 μL of eluent I was added to the adsorption column; and the solutions were centrifuged at 12,000×g under room temperature for 15 secs. The adsorption columns were put into new collecting tubes; 500 μL of eluent II was added to the adsorption column; and the solutions were centrifuged at 12,000×g under room temperature for 15 secs. […]

[4] = Liver microsome metabolism stability, rat liver microsome; format: in vitro ADME, SD rat; settings: 0.5 mg protein/mL, test sample 1 μM, β-NADPH
Procedure: (§6) Test samples: the homemade compounds 1, 2, 4 and 5 of the present invention (for their chemical names and preparation methods, see the preparation example for each compound).
(§7) a mixed liver microsomes of SD rat and human both purchased from XenoTech, with batch Nos.: 1410271 (SD rat) and 1410013 (human) respectively, wherein the microsomal protein concentrations both were 20 mg mL^−1;
(§8) experimental promoter β-NADPH purchased from Roche (batch No.: 524F0231); and a phosphate buffer solution (pH 7.4) made in the lab.
(§9) An appropriate amount of the test sample powder was weighed accurately, and dissolved in an appropriate amount of dimethyl sulfoxide (DMSO) to a concentration of 1 mM; and the solution was then diluted by 20 times with methanol to yield a 50 μM working solution.
(§10) (1) According to the proportions in table 3 “Composition of the incubation system for liver microsome metabolism stability experiment” above, for each compound, 6 mL of PBS (100 mM), 0.6 mL of MgCl2 solution (20 mM) and 3.66 mL of H2O were made into a mixed solution 1 for the incubation system (not containing the microsomes, the test sample and β-NADPH).
(§11) (2) Liver microsomes (20 mg protein/mL) were taken from a refrigerator (−80° C.), and were placed on a thermostatic water bath oscillator (37° C.) and pre-incubated for 3 mins.
(§12) (3) For each compound, 1.88 mL of the mixed solution 1 for the incubation system was added with 55 μL of microsomes to obtain a mixed solution 2 for the incubation system (not containing the test sample and β-NADPH).
(§13) (4) Sample group (containing the microsomes and D-NADPH): 616 μL of mixed solution 2 for the incubation system was added with 14 μL of the test sample working solution (with a concentration of 50 μM), and with 70 μL of R-NADPH working solution (10 mM). The resulted solution was well mixed, and the resulted solution was then duplicated. The time points of sampling were at 0 min, 5th min, 10th min, 20th min, 30th min and 60th min.
(§14) (5) Control group (containing the microsomes, and water instead of D-NADPH): 264 μL of mixed solution 2 for the incubation system was added with 6 μL of the test sample working solution (50 μM), and with 30 μL of water. The resulted solution was well mixed, and the resulted solution was then duplicated. The time points of sampling were at 0 min and 60th min.
(§15) (6) 50 μL of sample was taken from an incubating sample tube at each predetermined time point, added to a terminating sample tube (containing 300 μL of cold terminator), and vortexed; and the reaction was terminated.
(§16) (7) after 10 mins of vortexing, the solution was centrifuged for 5 mins (12,000 rpm).
(§17) (8) 100 μL of supernatant was taken and added with 100 μL of water, and the mixture solution was thoroughly vortexed; and the solution was then analyzed by LC-MS/MS.
(§18) Percentages of residual contents were calculated according to the following formula.

[5] = Liver microsome metabolism stability, human liver microsome; format: in vitro ADME; settings: 0.5 mg protein/mL, test sample 1 μM, β-NADPH
Procedure: as §6, §7, §8, §9, §10, §11, §12, §13, §14, §15, §16, §17, §18

| SMILES | EC50 (SHP mRNA in AML12 cells) [nM] | EC50 (BSEP mRNA in HepG2 cells [1]) [nM] | EC50 (SHP mRNA in HepG2 cells) [nM] | IC50 [2] [nM] | relative expression of BSEP mRNA in HepG2 cells (BSEP mRNA in HepG2 cells [3]; Table 2, 0.3 μM) [%] | relative expression of BSEP mRNA in HepG2 cells (BSEP mRNA in HepG2 cells [3]; Table 2, 3 μM) [%] | Residual content (%) after 60 minutes of incubation [4] [%] | Residual content (%) after 60 minutes of incubation [5] [%] | relative expression of BSEP mRNA in HepG2 cells (BSEP mRNA in HepG2 cells [3]; Table 1, 0.3 μM) [%] | relative expression of BSEP mRNA in HepG2 cells (BSEP mRNA in HepG2 cells [3]; Table 1, 3 μM) [%] |
| --- | --- | --- | --- | --- | --- | --- | --- | --- | --- | --- |
| O=C(O)c1cc(F)c2nc(N3[C@@H]4CC[C@H]3C[C@@H](OCc3c(-c5ccccc5OC(F)(F)F)noc3C3CC3)C4)sc2c1 [Compound 1-1B, reference compound] | 1.51 | 0.75 | 0.26 | 0.1 |  |  |  |  |  |  |
| O=C(O)c1cc(F)c2nc(N3C[C@H]4C[C@@H]3C[C@@H]4OCc3c(-c4c(Cl)cccc4Cl)noc3C3CC3)sc2c1 (racemic) [Compound 4, 2-((1RS, 4RS, 5SR)-5-((5-cyclopropyl-3-(2,6-dichlorophenyl)isoxazol-4-yl)methoxy)-2-azabicyclo[2.2.1]heptan-2-yl)-4-fluorobenzo[d]thiazole-6-carboxylic acid] |  |  |  |  | 97 | 96 | 69 | 54 |  |  |
| O=C(O)c1ccc2nc(N3C[C@H]4C[C@@H]3C[C@@H]4OCc3c(-c4c(Cl)cccc4Cl)noc3C3CC3)sc2c1 (racemic) [Compound 2, 2-((1RS, 4RS, 5SR)-5-((5-cyclopropyl-3-(2,6-dichlorophenyl)isoxazol-4-yl)methoxy)-2-azabicyclo[2.2.1]heptan-2-yl)benzo[d]thiazole-6-carboxylic acid] |  |  |  |  |  |  | 94 | 55 | 145 | 179 |
| O=C(O)c1ccc(C2CC2c2ccc(OCc3c(-c4c(Cl)cccc4Cl)noc3C3CC3)cc2Cl)cc1 (stereo not drawn) [PX-104, reference compound] |  |  |  |  | 45 | 100 |  |  | 60 | 100 |
| O=C(O)c1ccc2nc(N3[C@@H]4CC[C@H]3C[C@@H](OCc3c(-c5c(Cl)cccc5Cl)noc3C3CC3)C4)sc2c1 [Compound 30-70, reference compound] |  |  |  |  |  |  |  | 20 | 105 | 146 |
| COc1cc(C(=O)O)cc2sc(N3C[C@H]4C[C@@H]3C[C@@H]4OCc3c(-c4c(Cl)cccc4Cl)noc3C3CC3)nc12 (racemic) [Compound 1, 2-((RS, 4RS, 5SR)-5-((5-cyclopropyl-3-(2,6-dichlorophenyl)isoxazol-4-yl)methoxy)-2-azabicyclo[2.2.1]heptan-2-yl)-4-methoxybenzo[d]thiazole-6-carboxylic acid] |  |  |  |  | 121 | 102 | 53 | 49 |  |  |
| Cc1cc(C(=O)O)cc2sc(N3C[C@H]4C[C@@H]3C[C@@H]4OCc3c(-c4c(Cl)cccc4Cl)noc3C3CC3)nc12 (racemic) [Compound 5, 2-((1RS, 4RS, 5SR)-5-((5-cyclopropyl-3-(2,6-dichlorophenyl)isoxazol-4-yl)methoxy)-2-azabicyclo[2.2.1]heptan-2-yl)-4-methylbenzo[d]thiazole-6-carboxylic acid] |  |  |  |  | 103 | 123 | 49 | 31 |  |  |
